Assay results: PMC8378549 (Antiviral research, 2021)

Tested on: TCRV (strain TRVL 11573)
Set-up: species or system AG129 mice
Details: mouse, in vivo

NC(=O)c1ncn([C@@H]2O[C@H](CO)[C@@H](O)[C@H]2O)n1 [Ribavirin, ribavirin]
Infectious TCRV Liver: 4.3, 3.5 log10 CCID50/mL
Infectious TCRV Serum: 2.5, ND log10 CCID50/mL
Infectious TCRV Spleen: 6.1, 5.5 log10 CCID50/mL
survival: 82%
viral loads on day 9 p.i. compared to placebo: only modestly reduced viral loads
